The values that follow come from US20110117208A1, “CHRONIC WOUND TREATMENT” (TECHNOSTICS LIMITED, priority 2008, published 2011).

The target in one assay is T1, elastase (Sus scrofa, UniProt P00772).
T1 construct: Elastase (from porcine pancreas Type I, aqueous); purchased Sigma-Aldrich Ltd, UK; host or cells: porcine pancreas
The assay can be described thus: Elastin Congo red assay. Type of assay: biochemical, porcine. To be noted: pH 8; FIG. 12, 13, 14. How it is done:
Elastin Congo red is a commercially available elastin substrate impregnated with the chromophore Congo red. In the presence of elastase the Congo red dye is liberated from the elastin and the resulting colour change can be measured and correlated with elastolytic activity. The elastin Congo red assay was used to determine the inhibitory effect of polyphosphates and trimetaphosphate on the elastase against the elastin Congo red substrate.
A series of test solutions containing between 0-306 mg/ml of the proposed inhibitor were prepared. 100 μl of this test solution was then thoroughly mixed with 100 μl of elastase solution on a vortex mixer. […] of buffered Elastin Congo red solution was then added and mixed. The inhibitor:enzyme:Elastin Congo red sample was then incubated overnight in a heated water bath at 37° C. Samples were then removed from the water bath and placed in iced water to cool for 30 minutes before being centrifuged (Fisher Scientific, accuSpin Model 400 Benchtop Centrifuge) at 13000 rpm for 5 minutes. The absorbance of the supernatant was measured at 540 nm (Labsystems Multiskan Ascent 354, ThermoFisher Scientific, Horsham, West Sussex, UK) using deionised water as a blank. […]

Another assay addresses T2, pepsin (Sus scrofa, UniProt P00791).
T2 construct: purchased Sigma-Aldrich Ltd, UK; host or cells: porcine gastric mucosa
The assay can be described thus: Trichloroacetic acid (TCA) precipitation assay, pepsin against haemoglobin. Type of assay: biochemical, porcine. To be noted: pH 2; FIG. 4. The method, then: The TCA assay is based on the method described by M. L. Anson (1938). J General Physiol, 22, 79-89. The substrate, bovine haemoglobin, is digested by pepsin. Any remaining undigested haemoglobin is then precipitated with TCA to yield a supernatant which contains only products of digested haemoglobin. The concentration of haemoglobin breakdown products in the supernatant is measured spectrophotometrically and provides an indication of proteinase activity. The TCA precipitation assay was used to determine the inhibitory effect of polyphosphates and trimetaphosphate on the action of pepsin against haemoglobin.
A series of test solutions containing between 0-306 mg/ml of the proposed inhibitor were prepared. 100 μl of this test solution was then thoroughly mixed with 100 μl of pepsin solution on a vortex mixer before 1500 μl of buffered bovine haemoglobin solution was added and mixed. The inhibitor:enzyme:haemoglobin sample was then incubated in a heated water bath for 30 minutes at 37° C. The samples was then removed from the incubator, mixed with 2.0 ml TCA solution and left to stand for 30 minutes in iced water. […] The absorbance of the supernatant was measured at 280 nm (Labsystems Multiskan Ascent 354, ThermoFisher Scientific, Horsham, West Sussex, UK) using deionised water as a blank. […]

T2 sequence (P00791 60-385): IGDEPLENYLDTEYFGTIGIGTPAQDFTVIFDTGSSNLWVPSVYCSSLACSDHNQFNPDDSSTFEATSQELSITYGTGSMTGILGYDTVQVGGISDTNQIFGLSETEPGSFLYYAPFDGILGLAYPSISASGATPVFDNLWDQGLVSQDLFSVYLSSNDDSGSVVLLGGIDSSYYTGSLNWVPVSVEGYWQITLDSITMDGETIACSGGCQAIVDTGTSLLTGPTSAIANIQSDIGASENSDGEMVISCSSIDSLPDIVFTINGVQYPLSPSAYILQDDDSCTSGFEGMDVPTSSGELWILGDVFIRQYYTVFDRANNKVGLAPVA
T1 sequence (P00772 27-266): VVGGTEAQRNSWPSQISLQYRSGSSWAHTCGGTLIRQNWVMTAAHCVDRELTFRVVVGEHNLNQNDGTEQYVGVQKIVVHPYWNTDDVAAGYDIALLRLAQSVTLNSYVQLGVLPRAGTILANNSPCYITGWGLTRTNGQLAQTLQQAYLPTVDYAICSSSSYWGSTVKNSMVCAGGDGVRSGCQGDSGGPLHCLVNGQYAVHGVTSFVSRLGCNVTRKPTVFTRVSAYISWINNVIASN

As to `O=P1([O-])OP(=O)([O-])OP(=O)([O-])O1.[Na+].[Na+].[Na+]` [sodium trimetaphosphate], on elastase, the “inhibition of elastase (in words, comparison)” value was “could also inhibit elastase across a wide concentration range; however, the extent of inhibition at maximal concentrations was not as large as that observed with polyphosphates”. Further, the “inhibition of pepsin (in words)” value at pepsin was “could also inhibit pepsin across a wide concentration range; however, the potency and extent of inhibition at maximal concentrations was not as large as that observed with polyphosphates”.
